According to US20250296942A1, “Phosphonate-Based Coordination Complexes and Methods of Preparation and Use Thereof” (University of Puerto Rico, priority 2021, published 2025):

Key:
[1] = Dissolution of 2,2′-BPBPA-based BPCCs in PBS (2,2′-BPBPA released, 299 nm); assay type: physicochemical; details: 37° C., 150 rpm, mean n = 2
Procedure: Dissolution experiment. In a 250 mL beaker was tranfer 100 mL of PBS or FaSSGF.
Subsequently, this solution was allowed to reach 37° C. at 150 rpm. Then, individually ˜10.0 mg of powdered 2,2′-BPBPA-based BPCCs were added to the PBS or FaSSGF solution. Aliquots (1 mL) were taken out at different time points (0, 1, 3, 6, 24, 48, and 72 h) and diluted with PBS or FaSSGF in 5 mL volumetric flasks. An aliquot (1 mL) was taken out before adding the 2,2′-BPBPA-based BPCCs to record the first time point (0 h). The dissolution experiments were performed in duplicate for each 2,2′-BPBPA-based BPCC. The absorbance of the 2,2′-BPBPA released from these materials was assessed at 299 (PBS) and 318 (FaSSGF) nm.
The release of 2,2′-BPBPA from the coordination complexes was assessed in physiological conditions (PBS, pH=7.40 and FaSSGF, pH=1.60). The absorbance of the supernatant was measured at the lambda of maximum absorption to determine the quantity of 2,2′-BPBPA release over time in PBS (λmax=299 nm) and FaSSGF (λmax=318 nm) at 37° C. It was observed that the 2,2′-BPBPA-based BPCCs release from 8 to 13% of 2,2′-BPBPA in neutral conditions (FIG. 160A). […] In acidic conditions, these 2,2′-BPBPA-based BPCCs release from 64 to 90% of 2,2′-BPBPA. The 2,2′-BPBPA-Ca (90%) and 2,2′-BPBPA-Zn (84%) presented the highest release of the ligand contrasted with 2,2′-BPBPA-Mg (64%) in FaSSGF (FIG. 160B). In particular, the 2,2′-BPBPA-Ca collapsed almost completely, indicating the possible ability of this material to degrade once in the acid environment of metastatic cancerous cells and be able to release potential cargo drugs.
Dissolution experiment. In a 250 mL beaker was tranfer 100 mL of PBS. Subsequently, this solution was allowed to reach 37° C. at 150 rpm. Then, individually ˜10.0 mg of powdered 2,2′-BPBPA-based BPCCs were added to the PBS solution. Aliquots (1 mL) were taken out at different time points (0, 1, 3, 6, 24, 48, and 72 h) and diluted with PBS in 5 mL volumetric flasks. An aliquot (1 mL) was taken out before adding the 2,2′-BPBPA-based BPCCs to record the first time point (0 h). The absorbance of the 2,2′-BPBPA released from these materials was assessed at 299 nm. The dissolution experiments were performed in duplicate for each 2,2′-BPBPA-based BPCC. The percentage (%) of 2,2′-BPBPA released in PBS from these complexes is illustrated in Table 30.

[2] = tested on: human breast cancer MDA-MB-231 cell line; assay: AlamarBlue cytotoxicity, BPBPA series, MDA-MB-231; assay type: cell-based; details: for IC50: Homo sapiens
Procedure: Cell culture methods. MCF-7, MDA-MB-231, and hFOB 1.19 cell lines were incubated employing DMEM (37° C.) and DMEM: F12 (34° C.) medium, respectively, in a 5% CO2. Cell lines were supplemented using 10% FBS and 1% Pen-Strep and medium exchange was performed twice a week. Cell passages were carried out at 80% confluency.
Cell-based assays. Cell lines were seeded in 96 well plates at a density of 5×10^3 cells/mL, cells were incubated for 24 h before treatment. Both cell lines were treated with 100 μL of BPBPA (0-400 μM), LET (0-200 μM), unloaded and loaded nano-Ca@BPBPA (0-50 μM). All cell-based assays were performed for 24, 48, and 72 h of treatment. Control groups were treated with media (DMEM or DMEM: F12) supplemented with 1% Pen-Strep. Then, the media was removed and replaced with 100 μL of 10% AlamarBlue® solution. The 96 well plates were incubated for 4 h before measurements. Then, the fluorescence was assessed at 560 nm of excitation and λmax 590 nm of emission. The cell viability (%) was evaluated by contrasting the percentage of live cells of the control groups with the cells treated with BPBPA, LET, unloaded and loaded nano-Ca@BPBPA. The half-maximal inhibitory concentration (IC50) was determined for BPBPA and letrozole employing the dose-response curves (% cell live vs. concentration). The relative cell live (% RCL) was assessed for the unloaded and loaded nano-Ca@BPBPA, utilizing LET as a control group. The IC50 and % RCL were plotted using the GraphPad Prism software vs. 9.3.0.
The cytotoxicity of BPBPA (control), LET (control), nano-Ca@BPBPA (control), and drug-loaded nano-Ca@BPBPA (experimental) was investigated employing the human breast cancer, MCF-7 and MDA-MB-231, and the human osteoblast, hFOB 1.19, cell lines. The human MCF-7 cell line represents an ER-positive breast cancer model with estrogen, progesterone, and glucocorticoid receptors.^1 While, the human MDA-MB-231 cells correspond to a model of ER-negative breast cancer. Both selected cancer cell lines can be implicated in the development and progress of bone metastases in patients.^40,41 The human fetal hFOB 1.19 cells represent a homogeneous osteoblast-like (non-cancerous) model commonly employed to assess osteoblast differentiation.^42 The cytotoxicity of these materials was evaluated by determining the IC50 and % RCL. […] Similar results were found for MDA-MB-231 and hFOB 1.19 cell lines treated with LET (IC50 >200 μM) at the same time points (Supporting Information).
Cell culture methods. MCF-7 and MDA-MB-231 were incubated employing DMEM media at 37° C. in 5% CO2. The hFOB 1.19 cell lines were incubated using DMEM: F12 at 34° C. in 5% CO2. Cell lines were supplemented using 10% FBS and 1% Pen-Strep. The media was exchanged twice per week. Cell passages were carried out at 80% confluency.
Seeding. Cell lines were seeded in 96 well plates at a density of […] cells/mL; cells were incubated for 24 h before each treatment.
Treatment. Cell lines were treated with 100 μL of BPBPA (0-400 μM), LET (0-200 μM), unloaded and loaded nano-Ca@BPBPA (0.5-50 μM). Control groups were treated with media (DMEM or DMEM: F12) supplemented with 1% Pen-Strep. All cell-based assays were performed after 24, 48, and 72 h of treatment and in triplicate.
AlamarBlue@assay. To determine the cell viability, the media was removed and replaced with 100 μL of 10% AlamarBlue® solution. The 96 well plates were incubated for 4 h before measurements. Then, the fluorescence was assessed at 560 nm of excitation and λmax 590 nm of emission.

O=P(O)(O)c1ccc(-c2ccc(P(=O)(O)O)cn2)nc1 [2,2′-BPBPA, 2,2′-bipyridine-5,5′-bisphosphonic acid]
% Released (2,2′-BPBPA released in PBS) ([1]; 0 h (aliquot before addition)): 0%
% Released (2,2′-BPBPA released in PBS) ([1]; 1 h): 88%
% Released (2,2′-BPBPA released in PBS) ([1]; 3 h): 90%
% Released (2,2′-BPBPA released in PBS) ([1]; 6 h): 91%
% Released (2,2′-BPBPA released in PBS) ([1]; 24 h): 97%
% Released (2,2′-BPBPA released in PBS) ([1]; 48 h): 97%
% Released (2,2′-BPBPA released in PBS) ([1]; 72 h): 97%

N#Cc1ccc(C(c2ccc(C#N)cc2)n2cncn2)cc1 [LET, letrozole]
% RCL ([2]; 12.5 μM, 72 h): 99±1%
% RCL ([2]; 50 μM, 24 h): ~86%
% RCL ([2]; 50 μM, 48 h): ~83%
% RCL ([2]; 50 μM, 72 h): ~82%
IC50 ([2]; 24 h): > 200 µM
IC50 ([2]; 48 h): > 200 µM
IC50 ([2]; 72 h): > 200 µM
